Test results reported in patent US20170152226A1, “FUNCTIONALISED AND SUBSTITUTED INDOLES AS ANTI-CANCER AGENTS” (Novogen Ltd., priority 2014, published 2017).
Where two headings read alike, the source gives them in different places.

Experiments:
Assay in all cases: Anti-proliferative activity, cell-titre luminescent viability assay
Assay type in all cases: cell-based
DU145 = details: Homo sapiens, read-out: IC50 Prostate DU145
Method: (§1) The ability of compounds 3501-3540 and 3542-3545 to inhibit the proliferation of cancer cells representative of neuroblastoma, melanoma, prostate cancer, colorectal cancer, non-small cell lung carcinoma, and triple negative breast cancer was assessed. Briefly, a pre-determined number of cells as calculated from cell growth assays for each of the cell lines employed were seeded into their respective culture medium (using ATCC culture parameters—http://www.atcc.org) and cultured for 24 hours at 37° C. and 5% CO2 in 96-well culture plates. Once attached, each cell line was then exposed to increasing concentrations of each respective analogue (0.03, 0.3, 3 and 30 μM for compounds in Table 1; 0.1, 0.3, 1, 3, 10 and 30 μM for compounds in Table 2), cultured for a further 72 hours and exposed to cell-titre luminescent reagent (100 μL/well) for a further 30 min) to assess for cell viability. Luminescence was captured using an EnVision multilabel reader and the data for each analogue concentration was normalized, as a percentage, to the no treatment control. For compounds 3501, 3503, 3505-08, 3512-18, 3520, 3522-24 and 3531-36, semi-log plots of Percent of Control versus concentration were prepared and IC50 determined using linear regression analysis. For compounds 3502, 3504, 3509-11, 3519, 3521, 3525-30, 3537-40 and 3542-45, cell viability was normalized to control (vehicle alone) and dose-response curves, and half maximal effective concentration (EC50) values were determined using Graph Pad Prism 6 (nonlinear regression sigmoidal dose-response variable slope).

SK-N-SH = details: Homo sapiens, SK-N-SH, read-out: IC50 Neuroblastoma SK-N-SH
Method: as §1

CaCo2 = details: Homo sapiens, read-out: IC50 Colorectal CaCo2
Method: as §1

A549 = details: Homo sapiens, read-out: IC50 Lung (NSLC) A549
Method: as §1

SK-Mel-28 = details: Homo sapiens, SK-MEL-28, 72 hours, read-out: IC50 Melanoma SK-Mel-28
Method: as §1

MDA-MB-231 = details: Homo sapiens, read-out: IC50 Breast MDA-MB-231
Method: as §1

PC3 = details: Homo sapiens, read-out: IC50 Prostate PC3
Method: as §1

[1] = DU-145, 72 h, 0.1, 0.3, 1, 3, 10 and 30 μM, nonlinear regression sigmoidal dose-response (EC50)
[2] = 72 h, 0.1, 0.3, 1, 3, 10 and 30 μM, nonlinear regression sigmoidal dose-response (EC50)
[3] = Caco-2, 72 h, 0.1, 0.3, 1, 3, 10 and 30 μM, nonlinear regression sigmoidal dose-response (EC50)
[4] = A549, 72 h, 0.1, 0.3, 1, 3, 10 and 30 μM, nonlinear regression sigmoidal dose-response (EC50)
[5] = 0.1, 0.3, 1, 3, 10 and 30 μM, nonlinear regression sigmoidal dose-response (EC50)
[6] = MDA-MB-231, 72 h, 0.1, 0.3, 1, 3, 10 and 30 μM, nonlinear regression sigmoidal dose-response (EC50)
[7] = PC-3, 72 h, 0.1, 0.3, 1, 3, 10 and 30 μM, nonlinear regression sigmoidal dose-response (EC50)
[8] = DU-145, 72 h, 0.03, 0.3, 3 and 30 μM, linear regression of semi-log plots
[9] = 72 h, 0.03, 0.3, 3 and 30 μM, linear regression of semi-log plots
[10] = Caco-2, 72 h, 0.03, 0.3, 3 and 30 μM, linear regression of semi-log plots
[11] = A549, 72 h, 0.03, 0.3, 3 and 30 μM, linear regression of semi-log plots
[12] = 0.03, 0.3, 3 and 30 μM, linear regression of semi-log plots
[13] = MDA-MB-231, 72 h, 0.03, 0.3, 3 and 30 μM, linear regression of semi-log plots
[14] = PC-3, 72 h, 0.03, 0.3, 3 and 30 μM, linear regression of semi-log plots

Structure (SMILES): COc1ccc2cccc(CCN3CCN(C(=O)c4ccc(Cc5ccc6c(c5)c(C)c(C)n6CCCN5CCN(C)CC5)cc4)CC3)c2c1 [Compound 3545, (4-((2,3-dimethyl-1-(3-(4-methylpiperazin-1-yl)propyl)-1H-indol-5-yl)methyl)phenyl)(4-(2-(7-methoxynaphthalen-1-yl)ethyl)piperazin-1-yl)methanone]
- IC50 (DU145; [1]): 3.6 µM
- IC50 (SK-N-SH; [2]): 2.1 µM
- IC50 (CaCo2; [3]): 3.1 µM
- IC50 (A549; [4]): 4.2 µM
- IC50 (SK-Mel-28; [5]): 3.2 µM
- IC50 (MDA-MB-231; [6]): 2.3 µM
- IC50 (PC3; [7]): 3 µM

Structure (SMILES): Cc1c(C)n(CCCN2CCN(C)CC2)c2ccc(Oc3ccc(C(=O)N4CCN(CCc5cccc(F)c5)CC4)cc3)cc12 [Compound 3528]
- IC50 (DU145; [1]): 5.2 µM
- IC50 (SK-N-SH; [2]): 4.3 µM
- IC50 (CaCo2; [3]): 4.6 µM
- IC50 (A549; [4]): 6.6 µM
- IC50 (SK-Mel-28; [5]): 3.8 µM
- IC50 (MDA-MB-231; [6]): 5.9 µM
- IC50 (PC3; [7]): 7.3 µM

Structure (SMILES): Cc1c(C)n(CCCN2CCN(C)CC2)c2ccc(Cc3ccc(C(=O)N4CCN(CCc5ccc6c(c5)OCO6)CC4)cc3)cc12 [Compound 3521, (4-(2-(benzo[d][1,3]dioxol-5-yl)ethyl)piperazin-1-yl)(4-((2,3-dimethyl-1-(3-(4-methylpiperazin-1-yl)propyl)-1H-indol-5-yl)methyl)phenyl)methanone]
- IC50 (DU145; [1]): 5.7 µM
- IC50 (SK-N-SH; [2]): 4.2 µM
- IC50 (CaCo2; [3]): 6 µM
- IC50 (A549; [4]): 5.9 µM
- IC50 (SK-Mel-28; [5]): 4.1 µM
- IC50 (MDA-MB-231; [6]): 6.6 µM
- IC50 (PC3; [7]): 6.3 µM

Structure (SMILES): COc1cccc(CCN2CCN(C(=O)c3cccc(Cc4ccc5c(c4)c(C)c(C)n5CCCN4CCN(C)CC4)c3)CC2)c1 [Compound 3505, (3-((2,3-dimethyl-1-(3-(4-methylpiperazin-1-yl)propyl)-1H-indol-5-yl)methyl)phenyl)(4-(3-methoxyphenethyl)piperazin-1-yl)methanone]
- IC50 (DU145; [8]): 3.4 µM
- IC50 (SK-N-SH; [9]): 2.6 µM
- IC50 (CaCo2; [10]): 3.6 µM
- IC50 (A549; [11]): 3.1 µM
- IC50 (SK-Mel-28; [12]): 2.5 µM
- IC50 (MDA-MB-231; [13]): 2.8 µM
- IC50 (PC3; [14]): 2.6 µM

Structure (SMILES): COc1cccc(CCN2CCN(C(=O)c3ccc(Cc4ccc5c(c4)c(C)c(C)n5CCCN4CCN(C)CC4)cc3)CC2)c1 [Compound 3523, (4-((2,3-dimethyl-1-(3-(4-methylpiperazin-1-yl)propyl)-1H-indol-5-yl)methyl)phenyl)(4-(3-methoxyphenethyl)piperazin-1-yl)methanone]
- IC50 (DU145; [8]): 2.1 µM
- IC50 (SK-N-SH; [9]): 2.1 µM
- IC50 (CaCo2; [10]): 3.1 µM
- IC50 (A549; [11]): 1.4 µM
- IC50 (SK-Mel-28; [12]): 0.8 µM
- IC50 (MDA-MB-231; [13]): 1.1 µM
- IC50 (PC3; [14]): 2.4 µM

Structure (SMILES): COc1cccc(CCN2CCN(C(=O)c3cccc(Nc4ccc5c(c4)c(C)c(C)n5CCCN4CCN(C)CC4)c3)CC2)c1 [Compound 3517, (3-((2,3-dimethyl-1-(3-(4-methylpiperazin-1-yl)propyl)-1H-indol-5-yl)amino)phenyl)(4-(3-methoxyphenethyl)piperazin-1-yl)methanone]
- IC50 (DU145; [8]): 7.1 µM
- IC50 (SK-N-SH; [9]): 4.5 µM
- IC50 (CaCo2; [10]): > 30 µM
- IC50 (A549; [11]): 4.4 µM
- IC50 (SK-Mel-28; [12]): 3.7 µM
- IC50 (MDA-MB-231; [13]): 5.3 µM
- IC50 (PC3; [14]): 21.1 µM

Structure (SMILES): COc1cccc(CCN2CCN(C(=O)c3ccc(Nc4ccc5c(c4)c(C)c(C)n5CCCN4CCN(C)CC4)cc3)CC2)c1 [Compound 3535, (4-((2,3-dimethyl-1-(3-(4-methylpiperazin-1-yl)propyl)-1H-indol-5-yl)amino)phenyl)(4-(3-methoxyphenethyl)piperazin-1-yl)methanone]
- IC50 (DU145; [8]): 3.8 µM
- IC50 (SK-N-SH; [9]): 2.8 µM
- IC50 (CaCo2; [10]): 3 µM
- IC50 (A549; [11]): 2.7 µM
- IC50 (SK-Mel-28; [12]): 3.3 µM
- IC50 (MDA-MB-231; [13]): 2.6 µM
- IC50 (PC3; [14]): 3.7 µM
